For one test, the target named is T1, PRKCQ (Homo sapiens, UniProt Q04759).
T1 construct: purchased Eurofins DiscoverX KINOMEscan
Description: DiscoverX KINOMEscan binding assay at 1 μM, PRKCQ. To be noted: Compound Concentration 1000 nM, read-out: Percent Control. The text has this:
(§1) Supplement cells-12-00287-s001.zip/File S2. KinomeScan data for the CAMKK2 probe and negative control.xlsx, sheet "SGC-CAMKK2-1" | column: Percent Control

The target of another test is T2, MYO3A (Homo sapiens, UniProt Q8NEV4).
T2 construct: purchased Eurofins DiscoverX KINOMEscan
Description: KINOMEscan 1 μM, MYO3A. It is filed as binding. To be noted: 1000 nM; Entrez MYO3A; read-out: Percent Control.
Source text: as §1

In another test the target is T3, VPS34 (Homo sapiens, UniProt Q8NEB9).
T3 construct: purchased Eurofins DiscoverX KINOMEscan
Description: DiscoverX KINOMEscan binding assay at 1 μM, VPS34. To be noted: VPS34 (PIK3C3); Compound Concentration 1000 nM; read-out: Percent Control.
Source text: as §1

The target of the next test is T4, MET (Homo sapiens, UniProt P08581).
T4 construct: purchased Eurofins DiscoverX KINOMEscan
Briefly: KINOMEscan 1 μM, MET. It is filed as binding. To be noted: 1000 nM; Entrez MET; read-out: Percent Control.
Source text: as §1

The target of another test is T5, NDR2 (Homo sapiens, UniProt Q9Y2H1).
T5 construct: purchased Eurofins DiscoverX KINOMEscan
Description: KINOMEscan 1 μM, NDR2. It is filed as binding. To be noted: 1000 nM; Entrez STK38L; read-out: Percent Control.
Source text: as §1

Test [1] has as its target T6, ABL1(T315I)-phosphorylated (Homo sapiens, UniProt P00519, T315I).
T6 construct: purchased Eurofins DiscoverX KINOMEscan
Briefly: KINOMEscan 1 μM, ABL1(T315I)-phosphorylated. It is filed as binding. To be noted: 1000 nM; Entrez ABL1; read-out: Percent Control.
Source text: as §1

In the next test the target is T7, EIF2AK1 (Homo sapiens, UniProt Q9BQI3).
T7 construct: purchased Eurofins DiscoverX KINOMEscan
Briefly: KINOMEscan 1 μM, EIF2AK1. It is filed as binding. To be noted: 1000 nM; Entrez EIF2AK1; read-out: Percent Control.
Source text: as §1

In the next test the target is T8, CSF1R-autoinhibited (Homo sapiens, UniProt P07333).
T8 construct: purchased Eurofins DiscoverX KINOMEscan
Description: KINOMEscan 1 μM, CSF1R-autoinhibited. To be noted: 1000 nM; Entrez CSF1R; read-out: Percent Control. It is filed as binding.
Source text: as §1

The target in the next test is T9, AURKA (Homo sapiens, UniProt O14965).
T9 construct: purchased Eurofins DiscoverX KINOMEscan
Briefly: KINOMEscan 1 μM, AURKA. It is filed as binding. To be noted: 1000 nM; Entrez AURKA; read-out: Percent Control.
Source text: as §1

A further test concerns the target T10, PIK3C2B (Homo sapiens, UniProt O00750).
T10 construct: purchased Eurofins DiscoverX KINOMEscan
Briefly: KINOMEscan 1 μM, PIK3C2B. It is filed as binding. To be noted: 1000 nM; Entrez PIK3C2B; read-out: Percent Control.
Source text: as §1

Another test has as its target T11, ZAK (Homo sapiens, UniProt Q9NYL2).
T11 construct: purchased Eurofins DiscoverX KINOMEscan
Description: DiscoverX KINOMEscan binding assay at 1 μM, ZAK. To be noted: Compound Concentration 1000 nM, read-out: Percent Control.
Source text: as §1

A further test concerns the target T12, MARK4 (Homo sapiens, UniProt Q96L34).
T12 construct: purchased Eurofins DiscoverX KINOMEscan
Briefly: KINOMEscan 1 μM, MARK4. It is filed as binding. To be noted: 1000 nM; Entrez MARK4; read-out: Percent Control.
Source text: as §1

Another test deals with T13, TLK2 (Homo sapiens, UniProt Q86UE8).
T13 construct: purchased Eurofins DiscoverX KINOMEscan
Description: DiscoverX KINOMEscan binding assay at 1 μM, TLK2. To be noted: Compound Concentration 1000 nM, read-out: Percent Control.
Source text: as §1

A further test addresses T14, INSR (Homo sapiens, UniProt P06213).
T14 construct: purchased Eurofins DiscoverX KINOMEscan
Briefly: KINOMEscan 1 μM, INSR. It is filed as binding. To be noted: 1000 nM; Entrez INSR; read-out: Percent Control.
Source text: as §1

The next test deals with T15, KIT (Homo sapiens, UniProt P10721).
T15 construct: purchased Eurofins DiscoverX KINOMEscan
Description: KINOMEscan 1 μM, KIT. It is filed as binding. To be noted: 1000 nM; Entrez KIT; read-out: Percent Control.
Source text: as §1

In a further test the target is T16, PIK3C2G (Homo sapiens, UniProt O75747).
T16 construct: purchased Eurofins DiscoverX KINOMEscan
Briefly: KINOMEscan 1 μM, PIK3C2G. It is filed as binding. To be noted: 1000 nM; Entrez PIK3C2G; read-out: Percent Control.
Source text: as §1

Test [2] concerns the target T17, ABL1(Q252H)-phosphorylated (Homo sapiens, UniProt P00519, Q252H).
T17 construct: purchased Eurofins DiscoverX KINOMEscan
Description: KINOMEscan 1 μM, ABL1(Q252H)-phosphorylated. It is filed as binding. To be noted: 1000 nM; Entrez ABL1; read-out: Percent Control.
Source text: as §1

In another test the target is T18, MYLK4 (Homo sapiens, UniProt Q86YV6).
T18 construct: purchased Eurofins DiscoverX KINOMEscan
Description: KINOMEscan at 1 μM, MYLK4. It is filed as binding. To be noted: 1000 nM, read-out: Percent Control. The text has this: (§2) Supplement cells-12-00287-s001.zip/File S2. KinomeScan data for the CAMKK2 probe and negative control.xlsx, sheet "SGC-CAMKK2-1N" | column: Percent Control

In a further test the target is T19, CDK9 (Homo sapiens, UniProt P50750).
T19 construct: purchased Eurofins DiscoverX KINOMEscan
Description: KINOMEscan at 1 μM, CDK9. It is filed as binding. To be noted: 1000 nM, read-out: Percent Control.
Source text: as §2

For another test, the target named is T20, MAK (Homo sapiens, UniProt P20794).
T20 construct: purchased Eurofins DiscoverX KINOMEscan
Description: KINOMEscan at 1 μM, MAK. To be noted: 1000 nM, read-out: Percent Control. It is filed as binding.
Source text: as §2

The next test deals with T21, CSNK2A1 (Homo sapiens, UniProt P68400).
T21 construct: purchased Eurofins DiscoverX KINOMEscan
Description: KINOMEscan at 1 μM, CSNK2A1. It is filed as binding. To be noted: 1000 nM, read-out: Percent Control.
Source text: as §2

The target in the next test is T22, p38-delta (Homo sapiens, UniProt O15264).
T22 construct: purchased Eurofins DiscoverX KINOMEscan
Briefly: KINOMEscan at 1 μM, p38-delta. It is filed as binding. To be noted: 1000 nM, read-out: Percent Control.
Source text: as §2

For the next test, the target named is T23, EGFR (Homo sapiens, UniProt P00533).
T23 construct: purchased Eurofins DiscoverX KINOMEscan
Description: KINOMEscan at 1 μM, EGFR. To be noted: 1000 nM, read-out: Percent Control. It is filed as binding.
Source text: as §2

In a further test the target is T24, LRRK2(G2019S) (Homo sapiens, UniProt Q5S007, G2019S).
T24 construct: purchased Eurofins DiscoverX KINOMEscan
Briefly: KINOMEscan at 1 μM, LRRK2(G2019S). It is filed as binding. To be noted: 1000 nM, read-out: Percent Control.
Source text: as §2

Another test deals with T25, MST1 (Homo sapiens, UniProt Q13043).
T25 construct: purchased Eurofins DiscoverX KINOMEscan
Description: KINOMEscan binding assay at 1 μM, MST1. To be noted: Compound Concentration 1000 nM; read-out: Percent Control.
Source text: as §2

The next test deals with T26, LYN (Homo sapiens, UniProt P07948).
T26 construct: purchased Eurofins DiscoverX KINOMEscan
Description: KINOMEscan binding assay at 1 μM, LYN. To be noted: Compound Concentration 1000 nM; read-out: Percent Control.
Source text: as §2

The target of a further test is T27, PIP5K2B (Homo sapiens, UniProt P78356).
T27 construct: purchased Eurofins DiscoverX KINOMEscan
Description: KINOMEscan at 1 μM, PIP5K2B. It is filed as binding. To be noted: 1000 nM, read-out: Percent Control.
Source text: as §2

For another test, the target named is T28, PIK3CA(I800L) (Homo sapiens, UniProt P42336, I800L).
T28 construct: purchased Eurofins DiscoverX KINOMEscan
Briefly: KINOMEscan at 1 μM, PIK3CA(I800L). It is filed as binding. To be noted: 1000 nM, read-out: Percent Control.
Source text: as §2

A further test addresses T29, FLT3 (Homo sapiens, UniProt P36888).
T29 construct: purchased Eurofins DiscoverX KINOMEscan
Briefly: KINOMEscan at 1 μM, FLT3. To be noted: 1000 nM, read-out: Percent Control. It is filed as binding.
Source text: as §2

The next test deals with T30, EPHA7 (Homo sapiens, UniProt Q15375).
T30 construct: purchased Eurofins DiscoverX KINOMEscan
Description: KINOMEscan binding assay at 1 μM, EPHA7. To be noted: Compound Concentration 1000 nM; read-out: Percent Control.
Source text: as §2

Another test concerns the target T31, EPHA5 (Homo sapiens, UniProt P54756).
T31 construct: purchased Eurofins DiscoverX KINOMEscan
Briefly: KINOMEscan binding assay at 1 μM, EPHA5. To be noted: Compound Concentration 1000 nM; read-out: Percent Control.
Source text: as §2

Another test concerns the target T32, p38-beta (Homo sapiens, UniProt Q15759).
T32 construct: purchased Eurofins DiscoverX KINOMEscan
Briefly: KINOMEscan binding assay at 1 μM, p38-beta. To be noted: Compound Concentration 1000 nM; read-out: Percent Control.
Source text: as §2

Another test has as its target T33, PRKD3 (Homo sapiens, UniProt O94806).
T33 construct: purchased Eurofins DiscoverX KINOMEscan
Briefly: KINOMEscan at 1 μM, PRKD3. To be noted: 1000 nM, read-out: Percent Control. It is filed as binding.
Source text: as §2

The target in test [3] is T34, JAK1(JH2domain-pseudokinase) (Homo sapiens, UniProt P23458).
T34 construct: JAK1(JH2domain-pseudokinase); purchased Eurofins DiscoverX KINOMEscan
Description: KINOMEscan at 1 μM, JAK1(JH2domain-pseudokinase). To be noted: 1000 nM, read-out: Percent Control. It is filed as binding.
Source text: as §2

The source of these data is publication PMC9856672, “SGC-CAMKK2-1: A Chemical Probe for CAMKK2” (Cells, 2023).

T22 sequence (O15264 whole entry): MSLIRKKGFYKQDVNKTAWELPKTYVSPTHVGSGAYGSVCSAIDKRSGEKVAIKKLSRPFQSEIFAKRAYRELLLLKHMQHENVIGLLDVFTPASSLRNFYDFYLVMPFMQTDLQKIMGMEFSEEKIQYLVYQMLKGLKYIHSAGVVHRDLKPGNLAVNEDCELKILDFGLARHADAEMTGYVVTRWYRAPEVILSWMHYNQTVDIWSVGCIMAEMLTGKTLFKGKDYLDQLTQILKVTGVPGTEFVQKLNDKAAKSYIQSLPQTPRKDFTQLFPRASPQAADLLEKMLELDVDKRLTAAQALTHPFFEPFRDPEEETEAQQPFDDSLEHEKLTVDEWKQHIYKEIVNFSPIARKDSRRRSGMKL
T29 sequence (P36888 27-993): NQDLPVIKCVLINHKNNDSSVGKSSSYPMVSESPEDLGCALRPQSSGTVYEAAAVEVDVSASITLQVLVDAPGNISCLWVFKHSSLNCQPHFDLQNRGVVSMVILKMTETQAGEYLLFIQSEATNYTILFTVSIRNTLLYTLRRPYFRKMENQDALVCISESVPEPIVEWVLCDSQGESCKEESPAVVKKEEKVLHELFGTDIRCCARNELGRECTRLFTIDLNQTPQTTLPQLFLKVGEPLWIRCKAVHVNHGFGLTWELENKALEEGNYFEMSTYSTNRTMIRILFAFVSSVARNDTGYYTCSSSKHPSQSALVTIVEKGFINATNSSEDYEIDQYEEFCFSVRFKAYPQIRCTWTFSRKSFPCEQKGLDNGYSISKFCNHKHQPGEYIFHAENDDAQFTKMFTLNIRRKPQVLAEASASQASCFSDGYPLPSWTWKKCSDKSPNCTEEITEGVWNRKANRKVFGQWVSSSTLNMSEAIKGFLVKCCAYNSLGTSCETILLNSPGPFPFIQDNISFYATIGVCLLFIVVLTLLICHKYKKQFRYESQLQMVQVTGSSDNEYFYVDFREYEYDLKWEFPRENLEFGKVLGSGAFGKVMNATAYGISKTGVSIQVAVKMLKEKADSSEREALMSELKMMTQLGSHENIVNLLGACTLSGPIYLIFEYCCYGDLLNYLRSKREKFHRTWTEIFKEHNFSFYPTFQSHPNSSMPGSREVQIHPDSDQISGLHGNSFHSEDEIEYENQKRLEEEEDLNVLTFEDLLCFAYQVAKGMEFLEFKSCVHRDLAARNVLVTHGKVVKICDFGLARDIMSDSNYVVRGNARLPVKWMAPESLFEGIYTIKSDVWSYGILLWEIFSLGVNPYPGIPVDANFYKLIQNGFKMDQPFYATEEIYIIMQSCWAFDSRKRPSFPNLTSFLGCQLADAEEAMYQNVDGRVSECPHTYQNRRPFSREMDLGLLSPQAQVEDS
T25 sequence (Q13043 whole entry): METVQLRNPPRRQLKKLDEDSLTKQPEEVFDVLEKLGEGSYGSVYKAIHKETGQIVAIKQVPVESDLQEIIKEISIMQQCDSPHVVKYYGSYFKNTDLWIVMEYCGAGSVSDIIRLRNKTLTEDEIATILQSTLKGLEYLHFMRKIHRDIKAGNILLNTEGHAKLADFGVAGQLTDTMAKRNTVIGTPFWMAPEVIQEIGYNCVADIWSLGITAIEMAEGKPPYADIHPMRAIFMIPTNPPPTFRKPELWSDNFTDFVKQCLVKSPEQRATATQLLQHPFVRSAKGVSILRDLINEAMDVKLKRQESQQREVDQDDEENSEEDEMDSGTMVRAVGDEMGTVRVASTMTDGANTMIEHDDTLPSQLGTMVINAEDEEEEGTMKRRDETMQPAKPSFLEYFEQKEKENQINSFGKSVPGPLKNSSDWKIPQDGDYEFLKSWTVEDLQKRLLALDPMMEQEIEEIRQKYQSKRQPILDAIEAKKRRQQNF
T9 sequence (O14965 whole entry): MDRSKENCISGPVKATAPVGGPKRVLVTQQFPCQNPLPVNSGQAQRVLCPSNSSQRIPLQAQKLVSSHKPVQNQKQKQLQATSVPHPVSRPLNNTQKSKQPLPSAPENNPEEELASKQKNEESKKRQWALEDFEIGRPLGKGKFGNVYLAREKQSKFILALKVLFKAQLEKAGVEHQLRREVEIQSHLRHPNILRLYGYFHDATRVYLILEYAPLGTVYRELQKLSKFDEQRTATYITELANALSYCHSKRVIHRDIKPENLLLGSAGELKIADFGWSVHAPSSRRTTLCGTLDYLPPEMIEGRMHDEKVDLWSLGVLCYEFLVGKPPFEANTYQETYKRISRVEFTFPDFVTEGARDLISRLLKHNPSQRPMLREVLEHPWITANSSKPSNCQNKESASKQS
T28 sequence (P42336 whole entry I800L): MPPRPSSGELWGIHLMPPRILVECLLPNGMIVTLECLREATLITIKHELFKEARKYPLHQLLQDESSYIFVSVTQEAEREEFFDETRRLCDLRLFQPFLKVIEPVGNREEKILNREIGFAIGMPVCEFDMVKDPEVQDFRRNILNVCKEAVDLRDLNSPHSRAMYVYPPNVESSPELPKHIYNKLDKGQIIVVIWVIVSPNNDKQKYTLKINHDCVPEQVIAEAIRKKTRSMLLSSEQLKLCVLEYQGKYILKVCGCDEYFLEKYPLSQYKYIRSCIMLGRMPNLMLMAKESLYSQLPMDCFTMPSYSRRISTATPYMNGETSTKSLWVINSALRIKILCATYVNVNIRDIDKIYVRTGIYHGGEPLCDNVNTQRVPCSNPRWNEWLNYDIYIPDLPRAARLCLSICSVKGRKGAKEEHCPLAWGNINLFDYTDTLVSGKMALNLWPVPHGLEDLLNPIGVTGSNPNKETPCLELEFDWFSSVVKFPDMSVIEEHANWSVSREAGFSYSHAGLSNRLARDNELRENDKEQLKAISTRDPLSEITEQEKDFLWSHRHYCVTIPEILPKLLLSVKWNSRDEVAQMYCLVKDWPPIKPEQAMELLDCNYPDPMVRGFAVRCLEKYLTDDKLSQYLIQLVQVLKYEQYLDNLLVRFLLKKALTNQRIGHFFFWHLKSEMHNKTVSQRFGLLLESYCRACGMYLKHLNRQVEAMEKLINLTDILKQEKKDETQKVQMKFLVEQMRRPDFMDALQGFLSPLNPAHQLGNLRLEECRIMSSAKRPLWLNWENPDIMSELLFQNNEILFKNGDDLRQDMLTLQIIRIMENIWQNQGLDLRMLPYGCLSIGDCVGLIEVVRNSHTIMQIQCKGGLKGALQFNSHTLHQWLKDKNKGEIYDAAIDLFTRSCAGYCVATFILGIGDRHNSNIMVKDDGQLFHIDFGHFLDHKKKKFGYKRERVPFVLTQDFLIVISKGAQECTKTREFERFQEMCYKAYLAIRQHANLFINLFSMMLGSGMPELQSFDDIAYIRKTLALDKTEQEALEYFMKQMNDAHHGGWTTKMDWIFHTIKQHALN
T18 sequence (Q86YV6 whole entry): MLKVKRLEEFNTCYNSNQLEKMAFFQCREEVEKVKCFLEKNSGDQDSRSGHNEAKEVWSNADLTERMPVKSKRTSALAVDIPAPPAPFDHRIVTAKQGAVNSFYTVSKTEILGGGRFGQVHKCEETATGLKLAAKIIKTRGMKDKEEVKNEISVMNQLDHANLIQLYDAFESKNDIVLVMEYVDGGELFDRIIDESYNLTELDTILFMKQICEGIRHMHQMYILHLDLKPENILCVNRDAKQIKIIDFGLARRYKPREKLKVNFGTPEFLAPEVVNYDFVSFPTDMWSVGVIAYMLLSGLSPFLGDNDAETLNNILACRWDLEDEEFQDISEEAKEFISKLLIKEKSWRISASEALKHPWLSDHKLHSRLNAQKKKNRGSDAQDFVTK
T23 sequence (P00533 25-1210): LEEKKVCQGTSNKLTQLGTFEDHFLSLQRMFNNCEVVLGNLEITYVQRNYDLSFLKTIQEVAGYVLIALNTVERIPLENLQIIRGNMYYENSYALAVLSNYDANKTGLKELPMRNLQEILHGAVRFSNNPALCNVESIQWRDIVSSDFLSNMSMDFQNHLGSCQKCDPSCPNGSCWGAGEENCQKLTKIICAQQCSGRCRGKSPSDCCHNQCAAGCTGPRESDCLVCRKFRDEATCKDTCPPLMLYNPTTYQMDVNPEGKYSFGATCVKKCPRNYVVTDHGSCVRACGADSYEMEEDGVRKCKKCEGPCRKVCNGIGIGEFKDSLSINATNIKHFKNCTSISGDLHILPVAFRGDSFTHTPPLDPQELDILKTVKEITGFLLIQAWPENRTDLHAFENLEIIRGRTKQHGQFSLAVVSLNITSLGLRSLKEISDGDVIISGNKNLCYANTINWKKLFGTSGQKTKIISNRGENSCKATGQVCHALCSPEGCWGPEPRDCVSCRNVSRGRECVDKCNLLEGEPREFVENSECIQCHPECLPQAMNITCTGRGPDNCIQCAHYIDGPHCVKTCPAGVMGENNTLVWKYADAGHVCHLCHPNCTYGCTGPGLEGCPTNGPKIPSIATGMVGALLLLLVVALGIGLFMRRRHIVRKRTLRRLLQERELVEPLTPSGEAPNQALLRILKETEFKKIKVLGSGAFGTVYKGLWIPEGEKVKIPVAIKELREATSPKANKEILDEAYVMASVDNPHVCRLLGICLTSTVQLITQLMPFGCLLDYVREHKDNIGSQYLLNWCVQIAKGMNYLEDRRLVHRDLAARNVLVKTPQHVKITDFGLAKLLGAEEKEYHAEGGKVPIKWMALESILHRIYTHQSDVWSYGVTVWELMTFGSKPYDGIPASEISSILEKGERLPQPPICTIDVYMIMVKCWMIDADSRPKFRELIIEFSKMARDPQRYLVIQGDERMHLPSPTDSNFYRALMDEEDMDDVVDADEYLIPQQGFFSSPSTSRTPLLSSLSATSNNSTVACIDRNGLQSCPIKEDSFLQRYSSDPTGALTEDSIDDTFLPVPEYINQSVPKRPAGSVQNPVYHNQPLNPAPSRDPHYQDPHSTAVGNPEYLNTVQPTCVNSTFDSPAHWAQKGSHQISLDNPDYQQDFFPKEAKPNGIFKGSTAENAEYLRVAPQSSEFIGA

Take `Cc1cccc(-c2cnc3occ(-c4ccc(C(=O)O)c(C5CCCC5)c4)c3c2)c1` [SGC-CAMKK2-1 (YL-36)]: the remaining binding at 1 µM on PRKCQ was 100%; on MYO3A it was 100%; at VPS34, 100%; on MET, 92%; at NDR2 it was 100%; in test [1], 100%. Moreover, the remaining binding at 1 µM at EIF2AK1 worked out at 100%; on CSF1R-autoinhibited it was 85%; on AURKA, 100%; on PIK3C2B, 87%; at ZAK it was 100%; at MARK4, 100%. Also, the remaining binding at 1 µM was 100% on TLK2; 77% on INSR; 100% at KIT; 81% on PIK3C2G; 96% in test [2].

For the molecule `O=C(O)c1ccc(-c2coc3ncc(-c4ccccc4)cc23)cc1Cl` [SGC-CAMKK2-1N (UNC-YL-83)], the remaining binding at 1 µM at MYLK4 was determined as 91%; at CDK9, 89%; on MAK it was 83%; on CSNK2A1, 80%; at p38-delta, 98%; at EGFR, 100%. In addition, the remaining binding at 1 µM at LRRK2(G2019S) was 90%; on MST1, 100%; at LYN, 100%; on PIP5K2B it was 74%; on PIK3CA(I800L), 87%; on FLT3 it was 91%. Also, the remaining binding at 1 µM at EPHA7 stood at 100%; on EPHA5 it was 100%; at p38-beta, 100%; at PRKD3, 93%; in test [3] it was 80%.
